Data reported in ChEMBL document CHEMBL1142493, “Structure-based approach to the development of potent and selective inhibitors of dihydrofolate reductase from cryptosporidium” (J Med Chem, 2008).

Assay: Inhibition of Cryptosporidium hominis dihydrofolate reductase expressed in Escherichia coli by spectrophotometry

| SMILES | IC50 |
| --- | --- |
| COc1cc(-c2c(C)cccc2C)cc(C(C)C#Cc2c(C)nc(N)nc2N)c1 (racemic) | 2.1 nM |
| COc1cc(C(C)C#Cc2c(C)nc(N)nc2N)ccc1-c1c(C(C)C)cccc1C(C)C (racemic) | 16 nM |
